In brackets after ≈: the same amount, converted by molar mass. Each block holds one compound with its values, some of them ahead of it.
Key:
HH MRSA 714 (dfrG) = test: MIC against clinical isolate HH MRSA 714; type: cell-based; details: Staphylococcus aureus
UCH MRSA 1 (dfrG) = test: MIC against clinical isolate UCH MRSA 1; type: cell-based, Staphylococcus aureus
UCH MRSA 127 (dfrG) = test: MIC against clinical isolate UCH MRSA 127; type: cell-based, Staphylococcus aureus
UCH MRSA 121 (dfrG) = test: MIC against clinical isolate UCH MRSA 121; type: cell-based, Staphylococcus aureus
HH MRSA 1144 (dfrA) = test: MIC against clinical isolate HH MRSA 1144; type: cell-based, Staphylococcus aureus
UCH MSSA 1 (dfrG) = test: MIC against clinical isolate UCH MSSA 1; type: cell-based, Staphylococcus aureus
UCH MRSA 115 (dfrA) = test: MIC against clinical isolate UCH MRSA 115; type: cell-based, Staphylococcus aureus
[1] = tested on: S. aureus with dfrB point mutations; details: point mutations in chromosomal dfrB, ref Dale et al., 1997, cited from earlier work
[2] = tested on: multi-drug resistant MRSA ST398 (dfrK); details: dfrK in swine MRSA ST398; ref Kadlec et al. 2010; cited from earlier work
ATCC 43300 (Sa43300) = test: MIC against ATCC 43300; type: cell-based, Staphylococcus aureus
HH MRSA 1184 (dfrK) = test: MIC against clinical isolate HH MRSA 1184; type: cell-based, Staphylococcus aureus
[3] = tested on: TMP-resistant MRSA and MSSA clinical isolates; test: MIC against panel of TMP-resistant clinical isolates; type: cell-based, Staphylococcus aureus
[4] = tested on: TMP-resistant MRSA and MSSA clinical isolates; test: Clinical antibiotic susceptibility; type: cell-based, Staphylococcus aureus; details: all strains; CLSI breakpoint standards
[5] = Staphylococcus aureus, ATCC43300
[6] = ATCC 43300, no TMP resistance gene
[7] = HH MRSA 1184 (dfrK), sputum isolate
[8] = UCH MRSA 127 (dfrG), SSTI isolate
[9] = UCH MRSA 121 (dfrG), sputum isolate
[10] = HH MRSA 1144 (dfrA), SSTI isolate
[11] = UCH MSSA 1 (dfrG), sinus cavity isolate
[12] = UCH MRSA 115 (dfrA), SSTI isolate

SMILES: Cc1cc(NS(=O)(=O)c2ccc(N)cc2)no1 [SMX, sulfamethoxazole, reference compound]
- MIC (HH MRSA 714 (dfrG)): > 500 µg/mL
- MIC (UCH MRSA 1 (dfrG); Staphylococcus aureus, MRSA): > 500 µg/mL
- MIC (UCH MRSA 127 (dfrG); Staphylococcus aureus, MRSA): 16 µg/mL (≈ 63.2 µM)
- MIC (UCH MRSA 121 (dfrG); Staphylococcus aureus, MRSA): > 500 µg/mL
- MIC (HH MRSA 1144 (dfrA); Staphylococcus aureus, MRSA): > 500 µg/mL
- MIC (UCH MSSA 1 (dfrG); Staphylococcus aureus, MSSA): > 500 µg/mL
- MIC (UCH MRSA 115 (dfrA); Staphylococcus aureus, MRSA): 500 µg/mL (≈ 1970 µM)

SMILES: COc1cc(Cc2cnc(N)nc2N)cc(OC)c1OC [TMP, trimethoprim, reference compound]
- MIC ([1]; 1990s): 256 µg/mL (≈ 882 µM)
- Increase in MIC [1]: ~ 800 fold
- MIC (HH MRSA 714 (dfrG)): > 1000 µg/mL
- MIC [2]: 256 µg/mL (≈ 882 µM)
- MIC (ATCC 43300 (Sa43300); [5]): 0.312 µg/mL (≈ 1.08 µM)
- MIC (HH MRSA 1184 (dfrK); Staphylococcus aureus, MRSA): > 1000 µg/mL
- MIC (UCH MRSA 1 (dfrG); Staphylococcus aureus, MRSA): > 1000 µg/mL
- MIC (UCH MRSA 127 (dfrG); Staphylococcus aureus, MRSA): > 1000 µg/mL
- MIC (UCH MRSA 121 (dfrG); Staphylococcus aureus, MRSA): > 1000 µg/mL
- MIC (UCH MSSA 1 (dfrG); Staphylococcus aureus, MSSA): > 1000 µg/mL
- MIC (UCH MRSA 115 (dfrA); Staphylococcus aureus, MRSA): 250 µg/mL (≈ 861 µM)

SMILES: CCc1nc(N)nc(N)c1C#C[C@@H](C)c1cc(-c2ccc(C(=O)O)cc2)ccc1OC [UCP1164]
- MIC (ATCC 43300 (Sa43300); [6]): 0.0391 µg/mL (≈ 0.0939 µM)
- MIC (HH MRSA 1184 (dfrK); [7]): 0.625 µg/mL (≈ 1.5 µM)
- MIC (UCH MRSA 1 (dfrG); UCH MRSA 1 (dfrG), blood isolate): 2.5 µg/mL (≈ 6 µM)
- MIC (UCH MRSA 127 (dfrG); [8]): 2.5 µg/mL (≈ 6 µM)
- MIC (UCH MRSA 121 (dfrG); [9]): 5 µg/mL (≈ 12 µM)
- MIC (HH MRSA 1144 (dfrA); [10]): 5 µg/mL (≈ 12 µM)
- MIC (UCH MSSA 1 (dfrG); [11]): 5 µg/mL (≈ 12 µM)
- MIC (UCH MRSA 115 (dfrA); [12]): 10 µg/mL (≈ 24 µM)

SMILES: CCc1nc(N)nc(N)c1C#C[C@@H](C)c1cc(OC)cc(-c2ccc(C(=O)O)cc2)c1 [UCP1172]
- MIC (ATCC 43300 (Sa43300); [6]): 0.0098 µg/mL (≈ 0.0235 µM)
- MIC (HH MRSA 1184 (dfrK); [7]): 0.3125 µg/mL (≈ 0.75 µM)
- MIC against strains possessing dfrA ([3]; dfrA-possessing strains): does not significantly inhibit
- MIC (UCH MRSA 127 (dfrG); [8]): 0.3125 µg/mL (≈ 0.75 µM)
- MIC (UCH MRSA 121 (dfrG); [9]): 0.625 µg/mL (≈ 1.5 µM)
- MIC (HH MRSA 1144 (dfrA); [10]): 5 µg/mL (≈ 12 µM)
- MIC (UCH MRSA 115 (dfrA); [12]): 5 µg/mL (≈ 12 µM)

SMILES: CCc1nc(N)nc(N)c1C#CC(C)c1cc2c(c(-c3ccc(C(=O)O)cc3)c1)OCO2 (stereo not shown) [UCP1191]
- MIC (HH MRSA 1184 (dfrK); [7]): 0.1563 µg/mL (≈ 0.363 µM)
- MIC against strains carrying dfrG and dfrK ([3]; dfrG- and dfrK-possessing strains): 0.1563−0.625 μg/mL
- MIC (UCH MRSA 127 (dfrG); [8]): 0.1563 µg/mL (≈ 0.363 µM)
- MIC (UCH MRSA 121 (dfrG); [9]): 0.625 µg/mL (≈ 1.45 µM)
- MIC (HH MRSA 1144 (dfrA); [10]): 10 µg/mL (≈ 23.2 µM)
- MIC (UCH MSSA 1 (dfrG); [11]): 0.3125 µg/mL (≈ 0.726 µM)
- MIC (UCH MRSA 115 (dfrA); [12]): 20 µg/mL (≈ 46.5 µM)

SMILES: CCc1nc(N)nc(N)c1C#C[C@@H](C)c1cc2c(c(-c3ccc(C(=O)O)cc3)c1)OCO2 [UCP1205, (S)-4-(6-(4-(2,4-diamino-6-ethylpyrimidin-5-yl)but-3-yn-2-yl)benzo[d][1,3]dioxol-4-yl)benzoic acid]
- MIC (HH MRSA 714 (dfrG)): 0.625 µg/mL (≈ 1.45 µM)
- MIC (HH MRSA 1184 (dfrK); Staphylococcus aureus, MRSA): 0.312 µg/mL (≈ 0.726 µM)
- MIC (UCH MRSA 1 (dfrG); Staphylococcus aureus, MRSA): 0.625 µg/mL (≈ 1.45 µM)
- MIC (UCH MRSA 127 (dfrG); Staphylococcus aureus, MRSA): 0.312 µg/mL (≈ 0.726 µM)
- MIC (UCH MRSA 121 (dfrG); Staphylococcus aureus, MRSA): 0.625 µg/mL (≈ 1.45 µM)
- MIC (HH MRSA 1144 (dfrA); Staphylococcus aureus, MRSA): > 10 µg/mL
- MIC (UCH MSSA 1 (dfrG); Staphylococcus aureus, MSSA): 0.312 µg/mL (≈ 0.726 µM)
- MIC (UCH MRSA 115 (dfrA); Staphylococcus aureus, MRSA): > 10 µg/mL

SMILES: CCc1nc(N)nc(N)c1C#C[C@H](C)c1cc2c(c(-c3ccc(C(=O)O)cc3)c1)OCO2 [UCP1206, (R)-4-(6-(4-(2,4-diamino-6-ethylpyrimidin-5-yl)but-3-yn-2-yl)benzo[d][1,3]dioxol-4-yl)benzoic acid]
- MIC (HH MRSA 714 (dfrG)): 2.5 µg/mL (≈ 5.81 µM)
- MIC (ATCC 43300 (Sa43300); [5]): 0.0098 µg/mL (≈ 0.0228 µM)
- MIC (HH MRSA 1184 (dfrK); Staphylococcus aureus, MRSA): 1.25 µg/mL (≈ 2.9 µM)
- MIC (UCH MRSA 1 (dfrG); Staphylococcus aureus, MRSA): 2.5 µg/mL (≈ 5.81 µM)
- MIC (UCH MRSA 127 (dfrG); Staphylococcus aureus, MRSA): 1.25 µg/mL (≈ 2.9 µM)
- MIC (UCH MRSA 121 (dfrG); Staphylococcus aureus, MRSA): 2.5 µg/mL (≈ 5.81 µM)
- MIC (HH MRSA 1144 (dfrA); Staphylococcus aureus, MRSA): > 10 µg/mL
- MIC (UCH MSSA 1 (dfrG); Staphylococcus aureus, MSSA): 1.25 µg/mL (≈ 2.9 µM)
- MIC (UCH MRSA 115 (dfrA); Staphylococcus aureus, MRSA): > 10 µg/mL

- Susceptibility based on breakpoint MICs [4]: susceptible
SMILES: CCCCCCCCCC(=O)N[C@@H](Cc1c[nH]c2ccccc12)C(=O)N[C@H](CC(N)=O)C(=O)N[C@@H](CC(=O)O)C(=O)N[C@@H]1C(=O)NCC(=O)N[C@@H](CCCN)C(=O)N[C@@H](CC(=O)O)C(=O)N[C@H](C)C(=O)N[C@@H](CC(=O)O)C(=O)NCC(=O)N[C@H](CO)C(=O)N[C@@H]([C@H](C)CC(=O)O)C(=O)N[C@@H](CC(=O)c2ccccc2N)C(=O)O[C@@H]1C [daptomycin]

- Susceptibility based on breakpoint MICs [4]: susceptible
SMILES: CC(=O)NC[C@H]1CN(c2ccc(N3CCOCC3)c(F)c2)C(=O)O1 [linezolid]

- Susceptibility based on breakpoint MICs [4]: susceptible
SMILES: CO[C@H]1/C=C/O[C@@]2(C)Oc3c(C)c(O)c4c(O)c(c(/C=N/N5CCN(C)CC5)c(O)c4c3C2=O)NC(=O)/C(C)=C\C=C\[C@H](C)[C@H](O)[C@@H](C)[C@@H](O)[C@@H](C)[C@H](OC(C)=O)[C@@H]1C [rifampin]

SMILES: CN[C@H](CC(C)C)C(=O)N[C@H]1C(=O)N[C@@H](CC(N)=O)C(=O)N[C@H]2C(=O)N[C@H]3C(=O)N[C@H](C(=O)N[C@H](C(=O)O)c4cc(O)cc(O)c4-c4cc3ccc4O)[C@H](O)c3ccc(c(Cl)c3)Oc3cc2cc(c3O[C@@H]2O[C@H](CO)[C@@H](O)[C@H](O)[C@H]2O[C@H]2C[C@](C)(N)[C@H](O)[C@H](C)O2)Oc2ccc(cc2Cl)[C@H]1O [vancomycin]
- Susceptibility based on breakpoint MICs [4]: susceptible

Reference: article PMC5228619 (Cell chemical biology, 2016)
